Source: US9314471B2, “Methods of preparing pharmaceutical solid state forms” (NeurMedix, Inc., priority 2008, dated 2016)

How the values were obtained:
LNCaP tumor cells = assay: AED-stimulated LNCaP tumor model, effect of dose on tumor incidence; type: in vivo, SCID mice; details: for mean tumor volume in the animals that developed tumors: 28 days, vehicle 157 mm^3; for tumor incidence (compared to vehicle): daily for 28 days from 24 hours after tumor inoculation
Procedure: (§1) Castrated SCID mice (six week-old) were implanted with a 5 mg AED, 60-day time-release pellet (Innovative Labs, Sarasota Fla.). After three days, all mice were injected subcutaneously in the right flank with 100 μL of 7.5×10^6 LNCaP tumor cells in phenol red-free RPMI mixed 1:1 with Matrigel. Tumor volumes were measured weekly and calculated as a2×b/2 with a being the width and b the length of the tumor in millimeters (reported as mm^3).
To test the effect of dose on tumor incidence, a total of 48 castrated male SCID mice were implanted with LNCaP tumor cells as described, and the mice were randomly divided into 4 groups of 12 animals each to provide vehicle control (30% cyclodextrin-sulfobutylether in water) group and treatment groups using 4 mg/mouse/day, 1 mg/mouse/day, and 0.4 mg/mouse/day). Treatment groups used a liquid formulation prepared by dissolving a solid state form of 17α-ethynyl-androst-5-ene-3α,17β-diol (Compound 1) in vehicle, which provided 20 mg Compound 1 per mL in 30% cyclodextrin-sulfobutylether in water. The liquid formulation so prepared was administered 24 hours after tumor inoculation as a 200 μL intraperitoneal (ip) injection. All animals were dosed daily for 28 consecutive days and tumor volumes were measured weekly.
(§2) Statistical analysis: Time to first measurable tumor volume was analyzed via Kaplan-Meier product limit estimates, with the exact log-rank test applied to test for the significance of the difference. Reduction of tumor volume is defined as a reduction in volume of at least 20% of the baseline volume, persisting to the end of the study. To detect the difference between active and control group, Fisher's exact test and exact 95% Cl for the difference was applied. A tumor of non-measurable volume is a tumor that, with the methodology at hand, measures 0 to the end of the study. The growth rate of a tumor was also analyzed via the mixed model.

[1] = tested on: breast tumors induced by the administration of the carcinogen N-methyl-nitrosourea (NMU); assay: MNU stimulated breast tumor model; type: in vivo, Lewis rats
From the text: The following study determined the effect of a formulation prepared with a polymorph of 17α-ethynyl-androst-5-ene-3α,17β-diol (Crystalline Form III of Compound 1) on the rate of growth and incidence of breast tumors induced by the administration of the carcinogen N-methyl-nitrosourea (NMU). Additionally, the activity of Compound 1 was compared to TAMOXIFEN™ ((Z)-2-[4-(1,2-diphenylbut-1-enyl)phenoxy]-N,N-dimethyl-ethanamine), ARIMIDEX™ (anastrozole) and TAXOTERE™ (docetaxel), which are drugs currently used to treat breast cancer.
Seven week old female Lewis rats (150 animals, 104 required for the study) were anesthetized with isoflurane for NMU administration. NMU was the administered ip. at a dose of 50 mg/Kg. Mammary tumors that developed were measured using a vernier caliper with two axes of the tumor measured in cm. Treatment commenced using a liquid formulation of Compound 1, prepared by dissolving crystalline […] in vehicle, when rats have a tumor volume of 0.5 cm×0.5 cm (at about 12-20 week of age). Treatment continued for 28 consecutive days, followed by 28 days of observation.
The experimental groups were Negative control group (no treatment), Vehicle control group (30% cyclodextrin-sulfobutylether in water), two treatment groups (8 mg/rat and 4 mg/rat), three standard therapy groups using an estrogen blocker (TAMOXIFEN™), an aromatase inhibitor (ARIMIDEX™), a cytotoxic agent (TAXOTERE™) and a combination treatment group receiving Compound 1 (8 mg/kg) and TAXOTERE™.

LNCaP Cells [2] = assay: Cell cycle analysis of LNCaP cells (DAPI, cytometer); type: cell-based; details: 50 nM, four days, LNCaP cells in FBS or CSS
Procedure: (§3) LNCaP Cells (5×10^5) were seeded in phenol-red free RPMI with 5% hormone depleted charcoal stripped serum (CSS) in 6-well plates and allowed to adhere overnight, then cultured in fetal bovine serum (FBS) or CSS with or without 50 nM Compound 1 for four days. At the end of the incubation period, floating and adherent cells were harvested for cell cycle analysis. LNCaP cells were resuspended in a […] solution of 4,6-diamidino-2-phenylindole (DAPI) and 0.1% NP-40 in a Tris-buffered saline solution (pH 7.0) and analyzed using an Influx cytometer (Cytopiea, Seattle, Wash.). Analyses were performed with MultiCycle software (Phoenix Flow Systems, San Diego, Calif.). The Annexin V-FITC Apoptosis Detection Kit (Calbiochem, La Jolla, Calif.) was used according to the instructions of the manufacturer to detect apoptosis.

LNCaP Cells [3] = assay: Annexin V-FITC apoptosis detection in LNCaP cells; type: cell-based; details: 50 nM, four days
Procedure: as §3

established LNCaP tumors = assay: AED-stimulated LNCaP tumor model, effect on established LNCaP tumors; type: in vivo, SCID mice; details: 4 mg/mouse/day once a day for three weeks
Procedure: as §1
To test the effect of a Compound 1 on established LNCaP tumors, 36 castrated SCID mice received AED pellets and were inoculated with LNCaP tumors and monitored as described above. Once the tumors reach 15-25 mm^3, the mice were paired by tumor volume, and each mouse in a pair was assigned to the vehicle or 4 mg/mouse/day Compound 1 group. Animals were dosed once a day for three weeks.
as §2

[4] = Interconversion of crystalline forms in methanol-water (XRPD); type: physicochemical
Procedure: Form III Compound 1 (77.1 mg) was added to a glass vial, followed by MeOH (0.8 mL) and a stirring bar. The sample was placed in an oil bath at 65° C. and solids completely dissolved. Additional Form III was added so that excess solids remained and the mixture stirred for about 20 minutes. Additional MeOH (0.2 mL) was added and the mixture was hot filtered into a clean vial using a 0.2 μm nylon filter, and the filtrate was then placed in the oil bath at 65° C. Water (1 mL) was added and the mixture cooled to 20° C. over 2 hours. […] Form I was also produced from a slurry of Form III in 1:1 methanol water or 3:1 methanol:water that is seeded with samples having XRPD patterns of Form IV, Form V, Form VI, Form VII and Form VIII and stirred for 5 da at about 65° C. or 7 da at about 5° C.

[5] = Vapor stressing of melt-quenched amorphous Compound 1; type: physicochemical
Procedure: Amorphous compound 1, with varying degrees of crystallinity was also obtained form melt-quenching Form III according to the following procedure. Form III was lightly crushed with a spatula in a vial that was then placed in an oilbath set at 175° C. A nitrogen stream was run through the vial and the vial kept in the oilbath until the sample had melted. The vial was then removed and quickly placed in a bath containing dry ice with acetone. The sample was placed in a freezer under desiccant and analyzed by XRPD for crystallinity.
The propensity of amorphous material to convert to various crystalline forms was studied by vapor stressing melt-quenched Compound 1, prepared from Form III by the immediately preceding procedure.

[6] = Reanalysis of crystalline forms after prolonged standing; type: physicochemical
From the text: Thus, crystalline Form V of 17α-ethynyl-androstane-3α,17β-diol is an anhydrate (i.e., has no solvent in its crystal structure).
Prior to dissolution of Form VI for NMR analysis, the Form VI sample was washed with CCl4 to remove non-specifically absorbed surface solvent. Proton NMR spectroscopy thus indicates Form VI is a dioxane solvate, which is supported by the DTA/TGA data, and is most likely a mono dioxane solvate based upon integration of the δ 3.64 ppm resonance and the weight loss in TGA. After prolonged standing at ambient temperature and pressure, the Form VI sample was reanalyzed by DTA/TGA and proton NMR. […] Thus, desolvation of Form VI may occur if storage precautions are inadequate and may be accompanied by a polymorphic transition to a more thermodynamically stable form such as Form III.
Thus, crystalline Form VII of 17α-ethynyl-androstane-3α,17β-diol is most likely an anhydrate (i.e., has no solvent in its crystal structure).

C#C[C@]1(O)CC[C@H]2[C@@H]3CC[C@H]4C[C@H](O)CC[C@]4(C)[C@H]3CC[C@@]21C [Compound 1, 17-Ethynyl-10R,13S-dimethyl-2,3,4,5S,6,7,8R,9S,10,11,12,13,14S,15,16,17-hexadecahydro-1H-cyclopenta[a]phenanthrene-3S,17S-diol]
mean tumor volume in the animals that developed tumors (LNCaP tumor cells; 0.4 mg/mouse/day ip): 34 mm^3 | mean tumor volume in the animals that developed tumors (LNCaP tumor cells; 1 mg/mouse/day ip): 4 mm^3 | tumor incidence (compared to vehicle) (LNCaP tumor cells; 1 mg/mouse/day ip, p=0.006, n=11): significant reduction in tumor incidence | mean tumor volume in the animals that developed tumors (LNCaP tumor cells; 4 mg/mouse/day ip): 0 mm^3 | tumor incidence (compared to vehicle) (LNCaP tumor cells; 4 mg/mouse/day ip, p<0.001, n=12): significant reduction in tumor incidence | tumor volume (LNCaP tumor cells; all three dose groups (4, 1, 0.4 mg/mouse/day ip, 28 days)): decreases in tumor volume apparent | time to a measurable tumor volume (LNCaP tumor cells; three treated groups (4, 1, 0.4 mg/mouse/day ip), p<0.01): statistically significant delay | time to a new tumor as compared to vehicle ([1]; 28 consecutive days of treatment, 28 days of observation, p<0.001): longer time to a new tumor | time to new tumor compared with TAXOTERE ([1]; Compound 1 at 4 mg, p=0.042): outperformed TAXOTERE™ | tumor burden by volume compared with vehicle ([1]; Day 7 on: p<0.001): less tumor burden than for the vehicle treated group | median time to new tumor ([1]; from first day of dosing, vehicle 10 days): at least 56 days | delay to the occurrence of a second tumor vs vehicle ([1]; from median times to new tumor): at least a five fold delay | number of cells in G1 (LNCaP Cells [2]): rise in the number of cells in G1 | percentage of apoptotic LNCaP cells (LNCaP Cells [3]): increase in the percentage of apoptotic LNCaP cells | mice with a tumor that became non-measurable by Day 15 (established LNCaP tumors): two | growth of established tumors (tumor volume) (established LNCaP tumors; tumors 15-25 mm^3 at start, p<0.001 vs vehicle): significantly blocked the growth of tumors | percent of mice that reduced their tumor volumes by 20% or more (established LNCaP tumors; vs vehicle, p<0.0294): significantly greater percent of mice

C#C[C@]1(O)CC[C@H]2[C@@H]3CC[C@H]4C[C@H](O)CC[C@]4(C)[C@H]3CC[C@@]21C [Form I, 17α-ethynyl-5α-androstane-3α,17β-diol]
relative stability of polymorphic forms ([4]; methanol-water, slurry seeded with Forms IV-VIII, 5 da at about 65° C. or 7 da at about 5° C.): most stable polymorphic form in methanol-water

C#C[C@]1(O)CC[C@H]2[C@@H]3CC[C@H]4C[C@H](O)CC[C@]4(C)[C@H]3CC[C@@]21C [Form III, 17α-ethynyl-5α-androstane-3α,17β-diol]
conversion of crystalline form (XRPD) ([4]; dissolved in MeOH at 65° C., water added, cooled to 20° C. over 2 hours, also slurry in 1:1 or 3:1 methanol:water): has converted to Form I | relative thermodynamic stability of polymorphic forms ([5]; provided not exposed to methanol-water): most thermodynamically stable polymorphic form

C#C[C@]1(O)CC[C@H]2[C@@H]3CC[C@H]4C[C@H](O)CC[C@]4(C)[C@H]3CC[C@@]21C [Form V, 17α-ethynyl-5α-androstane-3α,17β-diol]
polymorphic transition on prolonged standing (XRPD reanalysis) ([6]; prolonged standing): undergone a polymorphic transition to Form III

C#C[C@]1(O)CC[C@H]2[C@@H]3CC[C@H]4C[C@H](O)CC[C@]4(C)[C@H]3CC[C@@]21C [Form VI, 17α-ethynyl-5α-androstane-3α,17β-diol]
desolvation on standing (DTA/TGA reanalysis) ([6]; prolonged standing at ambient temperature and pressure): no TGA weight loss and no desolvation events in DTA

C#C[C@]1(O)CC[C@H]2[C@@H]3CC[C@H]4C[C@H](O)CC[C@]4(C)[C@H]3CC[C@@]21C [amorphous Compound 1, 17-ethynyl-5α-androstane-3α,17β-diol]
conversion of amorphous material to crystalline form ([5]; vapor stressing at high humidity): will convert back to Form III
